Measured values as given in patent US20230398130A1, “METHODS AND COMPOSITIONS FOR DIFFERENTIATING STEM CELLS” (Massachusetts Institute of Technology, priority 2020, published 2023).

How the values were obtained:
[1] = tested on: ISC-enriched organoids; experiment: Primary screen, 384-well 2.5-D organoid differentiation (ENR+CD, 6 days, Target Selective Inhibitor Library, vs whole-plate median): ATP (CellTiter-Glo 3D, CTG); conditions: for Dose.FC.CTG (log 2 fold change, ATP) / Dose.FC.CTG (log 2 fold change): vs plate median; for Dose.FC.CTG: FC vs plate median; for Z.CTG: standard z score of FC; for SSMD.CTG: strictly standardized mean difference
[2] = tested on: ISC-enriched organoids; experiment: Primary screen, 384-well 2.5-D organoid differentiation (ENR+CD, 6 days): carbachol-induced lysozyme secretion (LYZ.S); assay type: cell-based, murine; conditions: for Dose.FC.LYZ.S (log 2 fold change, carbachol-induced lysozyme secretion) / Dose.FC.LYZ.S (log 2 fold change): vs plate median; for Dose.FC.LYZ.S (log 2 fold change) / Dose.FC.LYZ.S / Z.LYZ.S / SSMD.LYZ.S: primary screen; for Dose.FC.LYZ.S: FC vs plate median; for Z.LYZ.S: standard z score; for SSMD.LYZ.S: strictly standardized mean difference
Description: (§1) High-throughput screening.

[3] = tested on: ISC-enriched organoids; experiment: Primary screen, 384-well 2.5-D organoid differentiation (ENR+CD, 6 days): basal lysozyme secretion (LYZ.NS); assay type: cell-based, murine; conditions: for Dose.FC.LYZ.NS (log 2 fold change, basal lysozyme secretion) / Dose.FC.LYZ.NS (log 2 fold change): vs plate median; for Dose.FC.LYZ.NS: FC vs plate median; for Z.LYZ.NS: standard z score of FC; for SSMD.LYZ.NS: strictly standardized mean difference
Description: as §1

[4] = primary screen, 1st of the 4 dose lines of the treatment (dose not given)
[5] = primary screen, 2nd of the 4 dose lines of the treatment (dose not given)
[6] = primary screen, 3rd of the 4 dose lines of the treatment (dose not given)
[7] = primary screen, 4th of the 4 dose lines of the treatment (dose not given)
[8] = 1st of the 4 dose lines of the treatment (dose not given)
[9] = 2nd of the 4 dose lines of the treatment (dose not given)
[10] = 3rd of the 4 dose lines of the treatment (dose not given)
[11] = 4th of the 4 dose lines of the treatment (dose not given)

CC(C)C[C@@H](C(=O)N[C@H](C(=O)OC1CCCC1)c1ccccc1)[C@H](O)C(=O)NO [Tosedostat (CHR2797)]
Z.CTG (standard z score) ([1]; dose 0.08 uM): −0.232 | Dose.FC.CTG (log 2 fold change, ATP) ([1]; dose 0.08 uM): −0.097 | Z.CTG (standard z score) ([1]; dose 0.40 uM): 0.123 | Dose.FC.CTG (log 2 fold change, ATP) ([1]; dose 0.40 uM): 0.051 | Z.CTG (standard z score) ([1]; dose 2.00 uM): −0.480 | Dose.FC.CTG (log 2 fold change, ATP) ([1]; dose 2.00 uM): −0.201 | Z.CTG (standard z score) ([1]; dose 10.00 uM): −1.117 | Dose.FC.CTG (log 2 fold change, ATP) ([1]; dose 10.00 uM): −0.468 | Dose.FC.LYZ.S (log 2 fold change, carbachol-induced lysozyme secretion) ([2]; dose 0.08 uM): −0.027 | Dose.FC.LYZ.S (log 2 fold change, carbachol-induced lysozyme secretion) ([2]; dose 0.40 uM): −0.134 | Dose.FC.LYZ.S (log 2 fold change, carbachol-induced lysozyme secretion) ([2]; dose 2.00 uM): −0.128 | Dose.FC.LYZ.S (log 2 fold change, carbachol-induced lysozyme secretion) ([2]; dose 10.00 uM): −0.276 | Z.LYZ.NS (standard z score) ([3]; dose 0.08 uM): −0.022 | Dose.FC.LYZ.NS (log 2 fold change, basal lysozyme secretion) ([3]; dose 0.08 uM): −0.002 | Z.LYZ.NS (standard z score) ([3]; dose 0.40 uM): −0.925 | Dose.FC.LYZ.NS (log 2 fold change, basal lysozyme secretion) ([3]; dose 0.40 uM): −0.106 | Z.LYZ.NS (standard z score) ([3]; dose 2.00 uM): −0.432 | Dose.FC.LYZ.NS (log 2 fold change, basal lysozyme secretion) ([3]; dose 2.00 uM): −0.050 | Z.LYZ.NS (standard z score) ([3]; dose 10.00 uM): −1.499 | Dose.FC.LYZ.NS (log 2 fold change, basal lysozyme secretion) ([3]; dose 10.00 uM): −0.172

CO[C@H]1C[C@@H]2CC[C@@H](C)[C@@](O)(O2)C(=O)C(=O)N2CCCC[C@H]2C(=O)O[C@H]([C@H](C)C[C@@H]2CC[C@@H](OP(C)(C)=O)[C@H](OC)C2)CC(=O)[C@H](C)/C=C(\C)[C@@H](O)[C@@H](OC)C(=O)[C@H](C)C[C@H](C)/C=C/C=C/C=C/1C [Ridaforolimus (Deforolimus, MK-8669)]
Z.CTG (standard z score) ([1]; Dose 0.08 uM, primary screen): 1.011 | Dose.FC.CTG (log 2 fold change) ([1]; Dose 0.08 uM, primary screen): 0.423 | Z.CTG (standard z score) ([1]; Dose 0.40 uM, primary screen): 0.157 | Dose.FC.CTG (log 2 fold change) ([1]; Dose 0.40 uM, primary screen): 0.066 | Z.CTG (standard z score) ([1]; Dose 2.00 uM, primary screen): 0.659 | Dose.FC.CTG (log 2 fold change) ([1]; Dose 2.00 uM, primary screen): 0.276 | Z.CTG (standard z score) ([1]; Dose 10.00 uM, primary screen): 0.505 | Dose.FC.CTG (log 2 fold change) ([1]; Dose 10.00 uM, primary screen): 0.211 | Dose.FC.LYZ.S (log 2 fold change) ([2]; Dose 0.08 uM): 0.050 | Dose.FC.LYZ.S (log 2 fold change) ([2]; Dose 0.40 uM): 0.069 | Dose.FC.LYZ.S (log 2 fold change) ([2]; Dose 2.00 uM): 0.019 | Dose.FC.LYZ.S (log 2 fold change) ([2]; Dose 10.00 uM): 0.039 | Z.LYZ.NS (standard z score) ([3]; Dose 0.08 uM, primary screen): 0.041 | Dose.FC.LYZ.NS (log 2 fold change) ([3]; Dose 0.08 uM, primary screen): 0.005 | Z.LYZ.NS (standard z score) ([3]; Dose 0.40 uM, primary screen): 1.012 | Dose.FC.LYZ.NS (log 2 fold change) ([3]; Dose 0.40 uM, primary screen): 0.116 | Z.LYZ.NS (standard z score) ([3]; Dose 2.00 uM, primary screen): 0.646 | Dose.FC.LYZ.NS (log 2 fold change) ([3]; Dose 2.00 uM, primary screen): 0.074 | Z.LYZ.NS (standard z score) ([3]; Dose 10.00 uM, primary screen): 0.237 | Dose.FC.LYZ.NS (log 2 fold change) ([3]; Dose 10.00 uM, primary screen): 0.027

C[C@](O)(COc1ccc(C#N)cc1)C(=O)Nc1ccc(C#N)c(C(F)(F)F)c1 [MK-2866 (GTx-024)]
Dose.FC.CTG ([1]; Dose 0.08 uM, primary screen): 0.001 log 2 fold change | Z.CTG ([1]; Dose 0.08 uM): 0.003 | Dose.FC.CTG ([1]; Dose 0.40 uM, primary screen): −0.198 log 2 fold change | Z.CTG ([1]; Dose 0.40 uM): −0.474 | Dose.FC.CTG ([1]; Dose 2.00 uM, primary screen): −0.088 log 2 fold change | Z.CTG ([1]; Dose 2.00 uM): −0.210 | Dose.FC.CTG ([1]; Dose 10.00 uM, primary screen): −0.367 log 2 fold change | Z.CTG ([1]; Dose 10.00 uM): −0.877 | SSMD.CTG [1, 4]: 0.004 | SSMD.CTG [1, 5]: −0.285 | SSMD.CTG [1, 6]: −0.199 | SSMD.CTG [1, 7]: −0.814 | Dose.FC.LYZ.S ([2]; Dose 0.08 uM): 0.072 log 2 fold change | Dose.FC.LYZ.S ([2]; Dose 0.40 uM): 0.050 log 2 fold change | Dose.FC.LYZ.S ([2]; Dose 2.00 uM): 0.078 log 2 fold change | Dose.FC.LYZ.S ([2]; Dose 10.00 uM): −0.072 log 2 fold change | Z.LYZ.S [2, 8]: 0.466 | Z.LYZ.S [2, 9]: 0.322 | Z.LYZ.S [2, 10]: 0.506 | Z.LYZ.S [2, 11]: −0.463 | SSMD.LYZ.S [2, 8]: 0.378 | SSMD.LYZ.S [2, 9]: 0.164 | SSMD.LYZ.S [2, 10]: 0.307 | SSMD.LYZ.S [2, 11]: −0.543 | Dose.FC.LYZ.NS ([3]; Dose 0.08 uM, primary screen): 0.035 log 2 fold change | Z.LYZ.NS ([3]; Dose 0.08 uM): 0.309 | Dose.FC.LYZ.NS ([3]; Dose 0.40 uM, primary screen): 0.028 log 2 fold change | Z.LYZ.NS ([3]; Dose 0.40 uM): 0.241 | Dose.FC.LYZ.NS ([3]; Dose 2.00 uM, primary screen): 0.036 log 2 fold change | Z.LYZ.NS ([3]; Dose 2.00 uM): 0.310 | Dose.FC.LYZ.NS ([3]; Dose 10.00 uM, primary screen): −0.059 log 2 fold change | Z.LYZ.NS ([3]; Dose 10.00 uM): −0.510 | SSMD.LYZ.NS [3, 4]: 0.314 | SSMD.LYZ.NS [3, 5]: 0.150 | SSMD.LYZ.NS [3, 6]: 0.169 | SSMD.LYZ.NS [3, 7]: −0.515

CC(C)(Cc1ccc2ccccc2c1)NC[C@@H](O)COc1cccc(Cl)c1C#N [NPS-2143]
Dose.FC.CTG ([1]; Dose 0.08 uM, primary screen): 0.149 log 2 fold change | Z.CTG ([1]; Dose 0.08 uM): 0.356 | Dose.FC.CTG ([1]; Dose 0.40 uM, primary screen): −0.195 log 2 fold change | Z.CTG ([1]; Dose 0.40 uM): −0.466 | Dose.FC.CTG ([1]; Dose 2.00 uM, primary screen): −0.246 log 2 fold change | Z.CTG ([1]; Dose 2.00 uM): −0.587 | Dose.FC.CTG ([1]; Dose 10.00 uM, primary screen): −0.118 log 2 fold change | Z.CTG ([1]; Dose 10.00 uM): −0.282 | Dose.FC.LYZ.S ([2]; Dose 0.08 uM): 0.147 log 2 fold change | Dose.FC.LYZ.S ([2]; Dose 0.40 uM): −0.062 log 2 fold change | Dose.FC.LYZ.S ([2]; Dose 2.00 uM): −0.161 log 2 fold change | Dose.FC.LYZ.S ([2]; Dose 10.00 uM): −0.116 log 2 fold change | Dose.FC.LYZ.NS ([3]; Dose 0.08 uM, primary screen): 0.162 log 2 fold change | Z.LYZ.NS ([3]; Dose 0.08 uM): 1.413 | Dose.FC.LYZ.NS ([3]; Dose 0.40 uM, primary screen): −0.048 log 2 fold change | Z.LYZ.NS ([3]; Dose 0.40 uM): −0.416 | Dose.FC.LYZ.NS ([3]; Dose 2.00 uM, primary screen): −0.077 log 2 fold change | Z.LYZ.NS ([3]; Dose 2.00 uM): −0.674 | Dose.FC.LYZ.NS ([3]; Dose 10.00 uM, primary screen): −0.069 log 2 fold change | Z.LYZ.NS ([3]; Dose 10.00 uM): −0.597
